Measurements as given in patent US20250326814A1, “MODIFIED OXYNTOMODULIN AND METHODS OF USE THEREOF” (OPKO BIOLOGICS LTD., priority 2024, published 2025).
pEC50: −log10 of the molar value. Non-standard residues stand in square brackets, D forms with d. Residues, ends and D or L forms follow the SMILES beside them. No end group written: not given here. *: point of attachment. X3 = O=C(O)CCCCCCCCCCCCCCCCCCC(=O)N[C@@H](CCC(=O)N[C@@H](CCC(=O)O)C(=O)NCCOCCOCC(=O)NCCOCCOCC(=O)NCCOCCOCC(=O)N[C@@H](CCCCNC(=O)C*)C(=O)NCC(=O)O)C(=O)O; X4 = O=C(O)CCCCCCCCCCCCCCCCC(=O)N[C@@H](CCC(=O)NCCOCCOCC(=O)NCCOCCOCC(=O)N[C@@H](CCCCNC(=O)C*)C(=O)NCC(=O)O)C(=O)O; Aib = CC(C)(N)C(=O)O

How the values were obtained:
DIO mice [1] = assay: Body composition (fat and lean tissue mass) in DIO mice; format: in vivo
Description: The body composition of mice was assessed by an EchoMRI 3 in 1 Body composition analyzer (EchoMRI, US). Non-anaesthetized animals were placed in a plastic tube inside the MRI scanner for approximately 80 seconds. The body composition was reported as fat mass and fat free mass (lean mass).
(§1) Sixty C57BL/6JRj male mice were fed a high fat diet (60% HFD, D12492—Ssniff) for 20 weeks before treatment start. […] Body weight and food intake (24 h) were measured daily. In week 3, an OGTT study was performed. Baseline and preterminal fasting blood glucose and plasma insulin were assessed. Preterminal plasma TC and TG were assessed. Terminal endpoints included liver and heart weight, liver TC, TG, […] and lipid content (HE staining).

DIO mice [2] = assay: Liver H&E staining for lipid droplets / liver lipid in DIO mice; format: in vivo; conditions: 15 nmol/kg QD SC
Description: In summary, glass slides with paraffin embedded sections were deparaffinated in xylene and rehydrated in series of graded ethanol.
Slides treated with histochemical and immunohistochemical stains were scanned using a 20× objective in a ScanScope AT slide scanner (Aperio).
Hematoxylin & Eosin (H&E) staining: Sections of FFPE tissue were incubated in Mayer's Hematoxylin (Dako), washed in tap water, stained in Eosin Y solution (Sigma-Aldrich), dehydrated in graded ethanol and cover slipped.
as §1

DIO mice [3] = assay: Body weight and food intake in DIO mice, 4 weeks daily treatment; format: in vivo; conditions: for food consumption / cumulative food intake (FIG. 17B, 18B): OPK-88604 vs semaglutide; for cumulative food intake on day 28, P compared to Vehicle (FIG. 15): 15 nmol/kg q.d. SC, 4 weeks
Description: The animals were individually weighed and analyzed for lipid and cholesterol levels prior to treatment and following completion of the study. The levels of fasting glucose and insulin levels were analyzed, and oral glucose tolerance test was performed and compared between groups The levels of plasma triglycerides and cholesterol were evaluated at the end of study and compared to base levels prior to treatment. Levels of total cholesterol, triglycerides and glycogen were also examined at the end of study. Histology of liver was used to analyze for lipid droplets in the liver. All tests were conducted using routine methods known in the art.
The mice used in the studies were the gubra diet-induced obese (DIO) mouse model. This mouse model is fed a high fat diet that results in rapid weight gain. The DIO mice were based on male C57BI/6J mice and ready for experiment after 18 weeks on a 60% high fat diet.
To ensure accurate monitoring of weight changes over the course of the study, the animals were weighed daily with precision, prior to dosing at 7:00 AM. Body weight data was recorded in two formats: (1) Absolute measurements: The direct weight of the animal each day, and (2) Relative measurements: The weight expressed as a percentage relative to the body weight recorded on Day 1.
as §1

GLP1 = GLP1 (Homo sapiens, UniProt P43220); assay: CBA potency assay, GLP1 (Tables 10 and 11); format: cell-based
Chain of GLP1 (P43220 24-463): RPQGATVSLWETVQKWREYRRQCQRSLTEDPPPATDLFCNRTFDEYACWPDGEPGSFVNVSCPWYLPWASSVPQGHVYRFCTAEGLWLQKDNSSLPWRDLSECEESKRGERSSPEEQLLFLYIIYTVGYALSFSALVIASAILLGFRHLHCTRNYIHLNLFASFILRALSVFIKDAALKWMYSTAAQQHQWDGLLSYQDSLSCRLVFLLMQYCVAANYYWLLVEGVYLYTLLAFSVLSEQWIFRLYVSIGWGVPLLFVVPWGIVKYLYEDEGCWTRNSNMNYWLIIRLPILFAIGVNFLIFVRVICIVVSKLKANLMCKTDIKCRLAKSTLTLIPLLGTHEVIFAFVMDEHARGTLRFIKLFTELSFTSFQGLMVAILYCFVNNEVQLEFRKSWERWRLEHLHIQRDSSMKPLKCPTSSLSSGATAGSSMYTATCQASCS
Description: (§2) The impact of the longevity-enabling molecule (PEG Vs. FA-peptide/binder complex) on the peptide potency was studied.

GCGR = GCGR (Homo sapiens, UniProt P47871); assay: CBA potency assay, GCGR (Tables 10 and 11); format: cell-based
Chain of GCGR (P47871 26-477): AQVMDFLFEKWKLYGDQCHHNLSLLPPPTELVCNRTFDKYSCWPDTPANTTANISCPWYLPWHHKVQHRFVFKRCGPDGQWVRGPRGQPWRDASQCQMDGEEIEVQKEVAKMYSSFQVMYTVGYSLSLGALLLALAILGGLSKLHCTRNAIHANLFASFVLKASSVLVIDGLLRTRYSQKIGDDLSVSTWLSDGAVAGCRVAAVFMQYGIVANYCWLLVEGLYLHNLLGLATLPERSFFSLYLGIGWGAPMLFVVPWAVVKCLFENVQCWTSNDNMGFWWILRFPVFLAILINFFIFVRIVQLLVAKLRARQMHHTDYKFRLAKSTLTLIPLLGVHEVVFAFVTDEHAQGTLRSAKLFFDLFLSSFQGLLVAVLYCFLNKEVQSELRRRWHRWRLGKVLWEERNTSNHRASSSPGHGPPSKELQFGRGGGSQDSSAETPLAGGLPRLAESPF
Description: as §2

[4] = molecular target: T1, glucagon-like peptide-1 (GLP1) receptor (Homo sapiens, UniProt P43220); assay: GLP-1 activity EC50 of OXM analogs and GLP-1 therapeutics (Example 4, Table 9); format: cell-based; conditions: GLP-1 activity; Table 9; read-out: EC50
T1 construct: expressed in transfected cells; host or cells: CHO-K1
T1 sequence (P43220 24-463): as the sequence (P43220 24-463) above
Description: The potencies of the modified OXM analogs newly disclosed in the present application, the OXM Analog alone, and the PEGylated OXM analog were examined and compared by measuring the EC50 of both receptors, glucagon-like peptide-1 (GLP1) and glucagon (GCGR).

DIO mice [5] = assay: Plasma cholesterol and triglyceride in DIO mice; format: in vivo; conditions: 15 nmol/kg q.d.
Description: For termination blood samples, during anesthesia with isoflurane, the abdominal cavity was opened, and cardiac blood was drawn with a syringe into a Microvette/Vacuette of appropriate dimensions with anticoagulant and mixed by inversion 5 times. Blood was placed at 4° C. until centrifuged at 3000 g for 10 minutes. The plasma supernatants were transferred to new tubes and immediately frozen on dry ice. The samples were stored at −70° C.
Alanine transaminase (ALT), Aspartate transaminase (AST), Triglycerides (TG) and Total Cholesterol (TC): Blood samples were collected in heparinized tubes and plasma was separated and stored at −70° C. until analysis. Samples were measured using commercial kits (Roche Diagnostics), on the cobas c 501 autoanalyzer.
as §1

DIO mice [6] = assay: Fasting blood glucose and plasma insulin in DIO mice; format: in vivo; conditions: 15 nmol/kg q.d.
Description: For in vivo blood samples, tail-vein, tongue or cheek blood was collected in a Microvette tube of appropriate dimensions with anticoagulant and mixed by inversion 5 times. Blood was placed at 4° C. until centrifuged at 3000 g for 10 minutes. The plasma supernatants were transferred to new tubes and immediately frozen on dry ice. The samples were stored at −70° C.
Insulin: Blood samples were collected in heparinized tubes and plasma was separated and stored at −70° C. until analysis. Insulin was measured using the commercial MSD platform (Meso Scale Diagnostics).
as §1

Semaglutide
change in lean tissue mass from baseline, P compared to Vehicle (FIG. 23B) (DIO mice [1]; 15 nmol/kg QD SC): < 0.05 | relative fat tissue mass / relative lean tissue mass at week 4, P compared to Vehicle (FIG. 22A, 22B) (DIO mice [1]; 15 nmol/kg QD SC): < 0.05 | relative lean body mass and fat mass change from baseline on day 28 (FIG. 24A, 24B) (DIO mice [1]; 15 nmol/kg daily, 28 days, OPK-88604 vs semaglutide): statistically similar | relative liver lipid / total liver lipid, P compared to Vehicle (FIG. 31A, 31B) (DIO mice [2]): < 0.05 | absolute body weight at day 28, P compared to Vehicle (FIG. 16A) (DIO mice [3]; 15 nmol/kg QD SC): < 0.01 | food consumption / cumulative food intake (FIG. 17B, 18B) (DIO mice [3]; 15 nmol/kg daily, 28 days): reduced food consumption significantly more than OPK-88604 treatment | weight loss from baseline (FIG. 17A, 18A) (DIO mice [3]; 15 nmol/kg daily, 28 days, OPK-88604 vs semaglutide vs placebo): similar | food consumption / cumulative food intake (FIG. 17B, 18B) (DIO mice [3]; 15 nmol/kg daily, 28 days, listed as semaglutide): significantly decreased | cumulative food intake on day 28, P compared to Vehicle (FIG. 15) (DIO mice [3]): < 0.05

OPK-88003 FA-conjugate: either the modified OXM of Formula XXII or the modified OXM of Formula XXIII (H[Aib]QGTFTSDYSKYLDSKKAQEFVQWLLN[Aib]GRNRNNIACC; not fully specified (C-terminus); also: fatty acid binder on Cys38 or Cys39, isomer not given here)
Activity fold reduction compared to OPK-88003 KPI (GLP1) (GLP1; Table 11, without HSA): non | EC50 ratio (GCGR\GLP-1R) (GCGR; Table 10): 7.6 | EC50 ratio (GCGR\GLP-1R) (GCGR; Table 11, + HSA): 23.3 | EC50 ratio (GCGR\GLP-1R) (GCGR; Table 11, without HSA): 15.2

CC[C@H](C)[C@H](NC(=O)[C@H](CC(N)=O)NC(=O)[C@H](CC(N)=O)NC(=O)[C@H](CCCNC(=N)N)NC(=O)[C@H](CC(N)=O)NC(=O)[C@H](CCCNC(=N)N)NC(=O)CNC(=O)C(C)(C)NC(=O)[C@H](CC(N)=O)NC(=O)[C@H](CC(C)C)NC(=O)[C@H](CC(C)C)NC(=O)[C@H](Cc1c[nH]c2ccccc12)NC(=O)[C@H](CCC(N)=O)NC(=O)[C@@H](NC(=O)[C@H](Cc1ccccc1)NC(=O)[C@H](CCC(=O)O)NC(=O)[C@H](CCC(N)=O)NC(=O)[C@H](C)NC(=O)[C@H](CCCCN)NC(=O)[C@H](CCCCN)NC(=O)[C@H](CO)NC(=O)[C@H](CC(=O)O)NC(=O)[C@H](CC(C)C)NC(=O)[C@H](Cc1ccc(O)cc1)NC(=O)[C@H](CCCCN)NC(=O)[C@H](CO)NC(=O)[C@H](Cc1ccc(O)cc1)NC(=O)[C@H](CC(=O)O)NC(=O)[C@H](CO)NC(=O)[C@@H](NC(=O)[C@H](Cc1ccccc1)NC(=O)[C@@H](NC(=O)CNC(=O)[C@H](CCC(N)=O)NC(=O)C(C)(C)NC(=O)[C@@H](N)Cc1c[nH]cn1)[C@@H](C)O)[C@@H](C)O)C(C)C)C(=O)N[C@@H](C)C(=O)N[C@@H](CSCC(=O)NCCCC[C@H](NC(=O)COCCOCCNC(=O)COCCOCCNC(=O)COCCOCCNC(=O)[C@H](CCC(=O)O)NC(=O)CC[C@H](NC(=O)CCCCCCCCCCCCCCCCCCC(=O)O)C(=O)O)C(=O)NCC(=O)O)C(N)=O [Variant 3] (H-H[Aib]QGTFTSDYSKYLDSKKAQEFVQWLLN[Aib]GRNRNNIAC(X3)-NH2)
pEC50 [4]: 9.82

CC[C@H](C)[C@H](NC(=O)[C@H](CC(N)=O)NC(=O)[C@H](CC(N)=O)NC(=O)[C@H](CCCNC(=N)N)NC(=O)[C@H](CC(N)=O)NC(=O)[C@H](CCCNC(=N)N)NC(=O)CNC(=O)C(C)(C)NC(=O)[C@H](CC(N)=O)NC(=O)[C@H](CC(C)C)NC(=O)[C@H](CC(C)C)NC(=O)[C@H](Cc1c[nH]c2ccccc12)NC(=O)[C@H](CCC(N)=O)NC(=O)[C@@H](NC(=O)[C@H](Cc1ccccc1)NC(=O)[C@H](CCC(=O)O)NC(=O)[C@H](CCC(N)=O)NC(=O)[C@H](C)NC(=O)[C@H](CCCCN)NC(=O)[C@H](CCCCN)NC(=O)[C@H](CO)NC(=O)[C@H](CC(=O)O)NC(=O)[C@H](CC(C)C)NC(=O)[C@H](Cc1ccc(O)cc1)NC(=O)[C@H](CCCCN)NC(=O)[C@H](CO)NC(=O)[C@H](Cc1ccc(O)cc1)NC(=O)[C@H](CC(=O)O)NC(=O)[C@H](CO)NC(=O)[C@@H](NC(=O)[C@H](Cc1ccccc1)NC(=O)[C@@H](NC(=O)CNC(=O)[C@H](CCC(N)=O)NC(=O)C(C)(C)NC(=O)[C@@H](N)Cc1c[nH]cn1)[C@@H](C)O)[C@@H](C)O)C(C)C)C(=O)N[C@@H](C)C(=O)N[C@@H](CS)C(N)=O [MOD-604 KPI] (HELM PEPTIDE1{H.[Aib].Q.G.T.F.T.S.D.Y.S.K.Y.L.D.S.K.K.A.Q.E.F.V.Q.W.L.L.N.[Aib].G.R.N.R.N.N.I.A.C.[am]}$$$$V2.0)
pEC50 [4]: 9.89 | % EC50 compare to KPI (GLP1) (GLP1; Table 10): 45% | Activity fold reduction compared to OPK-88003 KPI (GLP1) (GLP1; Table 10): 2.2 fold | EC50 (GLP1; Table 10): 0.282 nM | % EC50 compare to KPI (GCGR) (GCGR; Table 10): 72% | Activity fold reduction compared to OPK-88003 KPI (GCGR) (GCGR; Table 10): 1.4 fold | EC50 (GCGR; Table 10): 0.83 nM | EC50 ratio (GCGR\GLP-1R) (GCGR; Table 10): 2.9

CC[C@H](C)[C@H](NC(=O)[C@H](CC(N)=O)NC(=O)[C@H](CC(N)=O)NC(=O)[C@H](CCCNC(=N)N)NC(=O)[C@H](CC(N)=O)NC(=O)[C@H](CCCNC(=N)N)NC(=O)CNC(=O)C(C)(C)NC(=O)[C@H](CC(N)=O)NC(=O)[C@H](CC(C)C)NC(=O)[C@H](CC(C)C)NC(=O)[C@H](Cc1c[nH]c2ccccc12)NC(=O)[C@H](CCC(N)=O)NC(=O)[C@@H](NC(=O)[C@H](Cc1ccccc1)NC(=O)[C@H](CCC(=O)O)NC(=O)[C@H](CCC(N)=O)NC(=O)[C@H](C)NC(=O)[C@H](CCCCN)NC(=O)[C@H](CCCCN)NC(=O)[C@H](CO)NC(=O)[C@H](CC(=O)O)NC(=O)[C@H](CC(C)C)NC(=O)[C@H](Cc1ccc(O)cc1)NC(=O)[C@H](CCCCN)NC(=O)[C@H](CO)NC(=O)[C@H](Cc1ccc(O)cc1)NC(=O)[C@H](CC(=O)O)NC(=O)[C@H](CO)NC(=O)[C@@H](NC(=O)[C@H](Cc1ccccc1)NC(=O)[C@@H](NC(=O)CNC(=O)[C@H](CCC(N)=O)NC(=O)C(C)(C)NC(=O)[C@@H](N)Cc1c[nH]cn1)[C@@H](C)O)[C@@H](C)O)C(C)C)C(=O)N[C@@H](C)C(=O)N[C@@H](CSCC(=O)NCCCC[C@H](NC(=O)COCCOCCNC(=O)COCCOCCNC(=O)CC[C@H](NC(=O)CCCCCCCCCCCCCCCCC(=O)O)C(=O)O)C(=O)NCC(=O)O)C(N)=O [Variant 2] (H-H[Aib]QGTFTSDYSKYLDSKKAQEFVQWLLN[Aib]GRNRNNIAC(X4)-NH2)
pEC50 [4]: 10.00

Tirzepatide [reference compound]
absolute fat tissue mass at week 4, P compared to Vehicle (FIG. 21A) (DIO mice [1]; 15 nmol/kg QD SC): < 0.001 | relative fat tissue mass / relative lean tissue mass at week 4, P compared to Vehicle (FIG. 22A, 22B) (DIO mice [1]; 15 nmol/kg QD SC): < 0.001 | relative liver lipid / total liver lipid, P compared to Vehicle (FIG. 31A, 31B) (DIO mice [2]): < 0.01 | plasma triglyceride at termination, P compared to Vehicle (FIG. 32B) (DIO mice [5]): < 0.01 | cumulative food intake on day 28, P compared to Vehicle (FIG. 15) (DIO mice [3]): < 0.001 | glucose tolerance plasma insulin at week 1, P compared to Vehicle (FIG. 36A) (DIO mice [6]): < 0.01 | glucose tolerance plasma insulin at week 4, P compared to Vehicle (FIG. 36B) (DIO mice [6]): < 0.01
